# Test results reported in US6541463B1, “Inhibitors of type 5 and type 3 17β-hydroxysteroid dehydrogenase and methods for their use” (Endorecherche, Inc., priority 1998, dated 2003).
# How the values were obtained:
# [1] = test system: Shionogi mouse mammary carcinoma cells; assay: Androgenic activity: stimulation of proliferation of Shionogi cells; assay type: cell-based
# Procedure, shortened: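 Shionogi mouse mammary carcinoma cells, at 20 000 cells/well in medium with 5% charcoal-stripped FCS, were grown 10–12 days with the inhibitor at 10^−7 M and 10^−6 M in triplicate. Medium was changed every 3–4 days. Proliferation was read by Coulter counting and given as % stimulation.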
# [2] = test system: Shionogi mouse mammary carcinoma cells; assay: Antiandrogenic activity: inhibition of DHT-induced proliferation of Shionogi cells; assay type: cell-based; details: for IC50: bracketed values, read-out: Antiandrogenic Activity Shionogi, DHT [IC50 (nM)]
# Procedure, shortened: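 Androgen-sensitive Shionogi mouse mammary carcinoma cells, 20 000/well, were grown 10–12 days in charcoal-stripped serum with increasing agent concentrations in triplicate, with medium changed every 3–4 days. Cell number was counted directly, and ED50 was derived by least-square regression.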
# [3] = Table 4′, DHT-induced proliferation, E^−6 (10^−6 M)
# [4] = Table 4′, DHT-induced proliferation, E^−7
SMILES,"Androgenic Activity Shionogi, Basal E^−6 ([1]; Table 4′, E^−6) [%]","Androgenic Activity Shionogi, Basal E^−7 ([1]; Table 4′, E^−7) [%]","Antiandrogenic Activity Shionogi, DHT E^−6 [2, 3] [%]","Antiandrogenic Activity Shionogi, DHT E^−7 [2, 4] [%]",also measured
CC(=O)[C@@]1(OC(=O)CCCCF)CCC2C3C=C(C)C4=CC(=O)CC[C@]4(C)C3CC[C@@]21C (some centres unmarked) [EM-1195-CS],–,–,–,–,"Androgenic Activity Shionogi, Basal ([1]; E^−6): −34; Androgenic Activity Shionogi, Basal ([1]; E^−7): −27; Antiandrogenic Activity Shionogi, DHT ([2]; E^−6): −110; Antiandrogenic Activity Shionogi, DHT ([2]; E^−7): −105"
CC(C)C[C@@H]1CC2C3C=CC4=CC(=O)CC[C@]4(C)C3CC[C@]2(C)C1=O (some centres unmarked) [EM-1273-CS],–,–,–,–,"Androgenic Activity Shionogi, Basal E^−6 ([1]; E^−6): −36; Androgenic Activity Shionogi, Basal E^−7 ([1]; E^−7): 12; Antiandrogenic Activity Shionogi, DHT E^−6 ([2]; with DHT, E^−6): −43; Antiandrogenic Activity Shionogi, DHT E^−7 ([2]; with DHT, E^−7): 9"
COc1ccc(CC(=O)O[C@]2(C(C)=O)CCC3C4C=C(C)C5=CC(=O)C=C[C@]5(C)C4CC[C@@]32C)cc1 (some centres unmarked) [EM-1291],–,–,–,–,"Androgenic Activity Shionogi, Basal ([1]; E^−6): −44; Androgenic Activity Shionogi, Basal ([1]; E^−7): −8; Antiandrogenic Activity Shionogi, DHT ([2]; E^−6): −48; Antiandrogenic Activity Shionogi, DHT ([2]; E^−7): −13"
"C[C@]12CCC(=O)C=C1C=C[C@@H]1[C@@H]2CC[C@]2(C)C(=O)C3(CC4CC4C3)C[C@@H]12 (some centres unmarked) [EM-1299, 4,6-Androstadien-3,17-dione-16-spirobicyclo[3′.1′.0′]-hexane]",–,–,–,–,"Androgenic Activity Shionogi, Basal E^−6 ([1]; E^−6): 10; Androgenic Activity Shionogi, Basal E^−7 ([1]; E^−7): 5; Antiandrogenic Activity Shionogi, DHT E^−6 ([2]; with DHT, E^−6): −27; Antiandrogenic Activity Shionogi, DHT E^−7 ([2]; with DHT, E^−7): 0"
CCS(=O)(=O)Oc1ccc2c(c1)CCC1C2CCC2(C)C1CCC21CCC(C)(C)C(=O)O1 (centres unmarked) [EM-1364-CS],−16,0,−59,−11,–
CC1(C)CCC2(CCC3C4CCc5cc(OS(C)(=O)=O)ccc5C4CCC32C)OC1=O (centres unmarked) [EM-1365-CS],−28,4,−53,−17,–
"COCCOc1ccc2c(c1)CCC1C2CCC2(C)C1CCC21CCC(C)(C)C(=O)O1 [EM-1368-CS, 3-Methoxyethoxy-1,3,5(10)-estratrien-17(R)-spiro-2′-(5′,5′-dimethyl-6′-oxo)-tetrahydropyran]",−22,8,−44,0,–
"CCOc1ccc2c(c1)CCC1C2CC[C@@]2(C)C1CC[C@@]21CCC(C)(C)C(=O)O1 (stereo partly drawn) [EM-1369, 3-Ethoxy-1,3,5(10)-estratrien-17(R)-spiro-2′-(5′,5′-dimethyl-6′-oxo)-tetrahydropyran]",0,0,−24,0,–
COc1ccc2c(c1)CCC1C2CCC2(C)C1CCC21CCC(C)(C)C(=O)O1 (centres unmarked) [EM-1370],−11,12,−28,0,–
COCCOc1cc2c(cc1Cl)C1CCC3(C)C(CCC34CCC(C)(C)C(=O)O4)C1CC2 (centres unmarked) [EM-1371-CS],92,58,−76,0,–
CC1(C)CC[C@@]2(CC[C@H]3[C@@H]4CCc5c(cc(Br)c(O)c5Br)[C@H]4CC[C@@]32C)OC1=O [EM-1382-CS],0,0,0,0,–
COc1c(Br)cc2c(c1Br)CCC1C2CCC2(C)C1CCC21CCC(C)(C)C(=O)O1 (centres unmarked) [EM-1385-CS],−28,−11,−61,0,–
COc1ccc2c(c1)C(=O)CC1C3CCC4(CCC(C)(C)C(=O)O4)C3(C)CCC21O (centres unmarked) [EM-1386],−17,5,−27,0,–
CN(C)CCOc1ccc2c(c1)CCC1C2CCC2(C)C1CCC21CCC(C)(C)C(=O)O1 (centres unmarked) [EM-1389-CS],−41,0,−103,−94,–
"CC1(C)CCC2(CCC3C4CCc5cc(OCCN6CCCCC6)ccc5C4CCC32C)OC1=O [EM-1390-CS, 3-(N-piperidyl-ethyl)-1,3,5(10)-estratrien-17(R)-spiro-2′-(5′,5′-dimethyl-6′-oxo)-tetrahydropyran]",−43,−18,−119,−36,–
CC1(C)CCC2(CCC3C4CCc5c(cc(Cl)c(O)c5Cl)C4CCC32C)OC1=O (centres unmarked) [EM-1391-CS],−13,0,−19,0,–
CC1(C)CCC2(CCC3C4CCc5c(cc(Cl)c(OS(C)(=O)=O)c5Cl)C4CCC32C)OC1=O (centres unmarked) [EM-1392-CS],−35,7,−75,0,–
COCCOc1cc2c(cc1F)C1CCC3(C)C(CCC34CCC(C)(C)C(=O)O4)C1CC2 (centres unmarked) [EM-1393-CS],−10,88,−104,27,–
COc1ccc2c(c1)C(=O)CC1C2CC[C@@]2(C)C1CC[C@@]21CCC(C)(C)C(=O)O1 (some centres unmarked) [EM-1394],−12,4,−23,0,–
COCCOc1cc2c(cc1C#N)C1CC[C@@]3(C)C(CC[C@@]34CCC(C)(C)C(=O)O4)C1CC2 (some centres unmarked) [EM-1396],−15,0,−29,−16,–
CC1(C)CCC2(CCC3C4CCc5cc(C(=O)OCc6ccccc6)ccc5C4CCC32C)OC1=O (centres unmarked) [EM-1398],−10,13,−37,0,–
"CC1(C)CC[C@@]2(CCC3C4CCc5cc(C(=O)O)ccc5C4CC[C@@]32C)OC1=O (stereo partly drawn) [EM-1401, 3-Carboxy-1,3,5(10)-estratrien-17(R)-spiro-2′-(5′,5′-dimethyl-6′-oxo)tetrahydropyran]",0,2,–,–,"IC50 ([2]; Mus musculus, Table 4′): > 1000 nM"
"COCCOc1cc2c(cc1C(=O)OC)C1CC[C@@]3(C)C(CC[C@@]34CCC(C)(C)C(=O)O4)C1CC2 (stereo partly drawn) [EM-1402-CS, 2-Carbomethoxy-3-(2″-methoxyethyloxy)-1,3,5(10)-estratrien 17(R)-spiro-2′-(5′,5′-dimethyl-6′-oxo)tetrahydropyran]",−9,0,−87,−13,–
CN(C)C(=O)c1ccc2c(c1)CCC1C2CCC2(C)C1CCC21CCC(C)(C)C(=O)O1 (centres unmarked) [EM-1403],0,19,−54,0,"inhibition at 1 µM ([2]; Mus musculus, 10^−6 M inhibitor, negative number = stimulation reduced, read-out: percentage of inhibition of DHT-induced proliferation of Shionogi cells): 54%"
CC1(C)CC[C@@]2(CCC3C4CCc5cc(C(N)=O)ccc5C4CCC32C)OC1=O (some centres unmarked) [EM-1404],0,0,–,–,"IC50 ([2]; Mus musculus, Table 4′): ~1000 nM"
"COCCOc1cc2c(cc1C(=O)O)C1CCC3(C)C(CCC34CCC(C)(C)C(=O)O4)C1CC2 [EM-1405, 2-Carboxy-3-(2″-methoxyethyloxy)-1,3,5(10)-estratrien-17(R)-spiro-2′-(5′,5′-dimethyl-6′-oxo)tetrahydropyran]",0,0,0,0,–
"CC1(C)CC[C@@]2(CCC3C4CCc5cc6oncc6cc5C4CC[C@@]32C)OC1=O (stereo partly drawn) [EM-1407-CS, 1,3,5(10)-estratrien-(2,3-oximino)-17(R)-spiro-2′-(5′,5′-dimethyl-6′-oxo)tetrahydropyran]",−23,0,−96,−16,–
COCCOc1ccc2c(c1)C(=O)CC1C2CCC2(C)C1CCC21CCC(C)(C)C(=O)O1 (centres unmarked) [EM-1408-CS],−12,0,−94,−19,–
"COc1cc2c(cc1C(F)(F)F)C1CCC3(C)C(CCC34CCC(C)(C)C(=O)O4)C1CC2 [EM-1409, 3-Methoxy-2-trifluoromethyl-1,3,5(10)-estratrien-17(R)-spiro-2′-(5′,5′-dimethyl-6′-oxo)tetrahydropyran]",−23,5,−105,−5,–
COc1cc2c(cc1C)C1CCC3(C)C(CCC34CCC(C)(C)C(=O)O4)C1CC2 (centres unmarked) [EM-1412-CS],−11,0,−60,0,–
